In patent US8518450B2, “Nanoparticle carriers for drug administration and process for producing same” (CSIR, priority 2008, dated 2013):

Experiments:
[1] = INH stability assessment using RP-HPLC; format: physicochemical; details: formulation with lactose
Protocol: The stability of INH spray dried powders was assessed by reverse phase-high performance liquid chromatography-analysis (RP-HPLC) using Shimadzu machine supplied with Photodiode Array (PDA) detector.
The following characteristics were applied: a Column Phenomenex [(C18 (5 μm); (250×4.6 mm ID)], a mobile phase of 5% (v/v) acetonitrile with 95% (v/v) buffer NaH2PO4 (pH 6.8), at a flow rate of 1 ml/min and at a temperature of 30° C. The detection was performed using PDA at λ=259 nm, on a total injection volume of 20 μl.

[2] = Drug incorporation / encapsulation efficiency of INH (UV-Vis); format: physicochemical; details: spray dried PLGA nanoparticles, PLGA:INH 2:1
Protocol: The amount of the hydrophilic drug Isoniazid that was entrapped in the particle powder after the nanoencapsulation process was measured in triplicate using a spectrophotometric method (UV-Vis, Thermo Spectronic Heliosα). The encapsulation efficiency of INH in nanoparticles was determined as the mass ratio of the entrapped INH to the theoretical amount of INH used in the preparation. For that, 50 mg of precipitated particles were re-suspended in 20 ml of deionised water, centrifuged (10 000 rpm/10 C/5 min) to remove the un-encapsulated drug and the supernatant was subject to UV-Vis Spectrophotometer, read at λ=262 nm for INH assessment. The encapsulated amount of INH was determined by subtracting INH in the supernatant from total initial INH amount.

NNC(=O)c1ccncc1 [INH, isoniazid]
stability of INH in spray dried powders (HPLC) [1]: degradation of INH | encapsulation efficiency of INH [2]: ~60%
